Data as given in patent US6933282B2, “Regulation of tyrosine hydroxylase by GPE” (Neuren Pharmaceuticals Ltd., priority 1998, dated 2005).

How the values were obtained:
Type in all cases: in vivo, rat
[1] = tested on: tyrosine hydroxylase (TH); test: Example 3: TH immunostaining density and TH positive neuron number in SNc after 6-OHDA lesion
Procedure: A paired experimental design was used and the experimenter was blinded to the treatment groups. Eighteen male Wistar rats (50-60 days old, 280-310 g) were used for this study. 6-hydroxy dopamine (6-OHDA) was prepared as 8 μg in a base of 2 μl 0.9% saline containing 1% ascorbic acid. It was administered into the right medial forebrain bundle (MFB) using coordinates of AP+4.7 mm, R 1.6 mm, V−8 mm under anaesthesia of 3% halothane. 6-OHDA was injected into the right MFB using a Hamilton syringe (100 μl with a 30G needle) controlled by a microdialysis infusion pump at an infusion rate of 0.2 μl/minute. The infusion needle was then slowly withdrawn 5 minutes after the infusion. […] Briefly, a guide cannula (21G, 6 mm) was fixed on the top of the dura with coordinates of AP+7.5 mm, R 1.5 mm immediately after the injection of 6-OHDA. Either GPE (3 μg/15 μl) or its vehicle were infused into the right lateral ventricle 2 hours later at an infusion rate of 2 μl/minute. Rats were then housed in a holding room with food and water ad libitum for the next 2 weeks.
The rats were then deeply anaesthetized with an overdose of pentobarbital and transcardially perfused with normal saline followed by 10% buffered formalin. The brains were removed from the skull and kept in the same fixative for the next 48 hours. A standard paraffin tissue preparation was used to process the tissue so that it could be used for immunohistochemistry. Coronal sections (8 μm) were cut using a microtome, and the sections were mounted on chrome alum coated microscopy slides and air-dried. SNc sections used for immunohistochemical staining were deparaffinized, rehydrated and washed in PBS (0.1M). The sections were then pretreated with 1% H2O2 for 20 minutes, washed with 0.1M PBS (3×5 minutes) and incubated with rabbit polyclonal antisera raised against tyrosine hydroxylase (Protos Biotech, USA) diluted 1:500 with 1% goat serum for 48 hours at 4° C. The sections were washed in PBS (3×5 minutes) and incubated with donkey anti-rabbit biotinylated secondary antibody (1:200, Amersham, Life Science) overnight at room temperature. The sections were washed, incubated in streptavidin-biotinylated horseradish peroxidase (1:200, Amersham, Life Science) for 3 hours, washed again in PBS and then reacted in 0.05% 3,3-diaminobenzidine tetrahydrochloride (DAB) and 0.01% H2O2 to produce a brown reaction product. The sections were dehydrated in a graded alcohol series, cleared in xylene and coverslipped with mounting medium.
The average density from the background was also measured. The analyst was blinded to the treatment and control groups. The difference in average density between the background and TH immunostaining was calculated and used for data analysis. […]

[2] = tested on: tyrosine hydroxylase (TH); test: Example 2: TH immunopositive neuron count in SNc after 6-OHDA lesion, second set of rats; conditions: 3 μg GPE 2 hours after 6-OHDA; 2 levels of SNc counted; vs vehicle; FIG. 2
Procedure: (§1) The objective of this experiment was to determine the effects of administering GPE on the expression of tyrosine hydroxylase (TH) in the presence or absence of CNS injury. […] Specifically, 9 pairs of adult male Wistar rats (280-320 g) were prepared under 3% halothane/O2 anaesthesia. The oxygen free radical producing neurotoxin 6-hydroxydopamine (6-OHDA) which produces degeneration of dopamine neurones (8 μg/2 μl) was injected into the median forebrain bundle using a 30 gauge needle (coordinates: anterior-posterior +4.7 mm, right +1.6 mm, vertical −8.5 mm). A guide cannula was placed on the dura 7.5 mm anterior from stereotaxic zero and 1.5 mm from the midline on the right. The rats were left to recover at room temperature. 2 hours after the administration of 6-OHDA the rats were treated, via the guide cannula, with 3μg GPE or vehicle alone (15μl injected with a pump rate of 2 μl/minute, 0.1M acetate buffer [pH6], diluted 10 times in 0.1 bovine serum albumin in 0.1M phosphate buffered saline [PBS][pH7.31]). […]
(§2) The total counts of neurons were compared between the GPE and the vehicle treated group. Data were analysed with paired t-test and presented as mean±sem.
Example 2 was performed using a second set of rats (9 pairs), using the same experimental parameters except that only the immunopositive neurons at 2 levels of the SNc were counted.

[3] = tested on: tyrosine hydroxylase (TH); test: Example 4: survival of TH immunopositive nigral neurons after medial forebrain bundle transection; conditions: lesioned side; daily supranigral GPE 0.3 μg/μl, 1 μl, for two weeks after MFB transection; ipsilateral/contralateral; FIG. 5
Procedure: Adult male Wistar rats (200-220 g) were anaesthetized with 75 mg/kg Nembutal and positioned in a stereotaxic apparatus. Unilateral transection of the medial forebrain bundle which contains the ascending nigral dopaminergic projection fibers was made 1.3 mm rostral to the rostral tip of the SNc using a retractable wire knife (David Kopf Instruments, Tujunga, Calif.). The knife was lowered into the brain using the following coordinates from the atlas of Paxinos and Watson (1986), Sydney: Academic Press: 3.3 mm posterior to Bregma, 2.4 mm lateral from midline, and 8.5 mm ventral from skull, the blade was extended 2.0 mm toward midline, raised 2.5 mm dorsally, retracted and extended again, and then returned 2.5 mm ventrally. The wire blade was retracted and the knife withdrawn. Next, a 22-gauge metal guide cannula was permanently fixed into place supranigrally at 5.0 mm posterior to Bregma, 2.0 mm lateral to midline, and 6.8 mm ventral to skull. […]
Immunopositive cells were counted in the central SNc Counts were made ventral and lateral to the lemniscus medialis, including both the pars compacta and pars reticulata, but excluding the ventral tegmental area in the ventromedial midbrain and the retrorubral field in the caudolateral midbrain. […] To reveal percent survival, percent changes were calculated by dividing the ipsilateral value by contralateral value.

[4] = tested on: tyrosine hydroxylase (TH); test: Example 1: TH immunopositive neuron count in SNc after 6-OHDA lesion, GPE given 2 hours later; conditions: lesioned (right) side; 3 μg GPE via guide cannula 2 hours after 6-OHDA; 14 days; 3 levels of SNc; vs vehicle; FIG. 1
Procedure: This experiment was blind with respect to the treatment (with GPE or the vehicle) and with respect to the counting of neurons expressing TH (between sections from animals treated with GPE or vehicle).
as §1, §2

Substance: Gly-Pro-Glu [GPE]
- loss of TH immunopositive neurons in the SNc ([1]; compared to the control group, 6-OHDA lesion): prevented the loss
- density of TH immunostaining in cytoplasm and processes of neurons ([1]; ipsilateral SNc, GPE intraventricularly 2 hours after 6-OHDA, FIG. 4): restored
- neuronal survival (TH immunopositive neurons, R/L ratio) ([1]; most caudal level of SNc, GPE 3 μg/15 μl into right lateral ventricle 2 hours after 6-OHDA, 2 weeks, mean±SEM): 60±13.0%
- restoration in TH immunoreactivity (density of TH immunostaining, R/L ratio) ([1]; most caudal level of SNc, GPE 3 μg/15 μl into right lateral ventricle 2 hours after 6-OHDA, 2 weeks, mean±SEM, FIG. 3): 99.6±27%
- TH expression (number of TH immunopositive neurons) [2]: upregulation of TH expression
- percent cell survival of TH immunopositive neurons [3]: increased
- number of TH immunopositive dopaminergic neurons [4]: increased
